Calls of active or inactive are those of the source. The calls are words filed in the database; no cut-off is given here.
tested on: Hypothalamus; experiment: Effect on FAAH gene expression in Sabra mouse hypothalamus assessed as change in mRNA level at 1 mg/kg, ip administered on day 8, 9, 10, 11, 14, 18, 24 and 32 by RT-PCR analysis relative to GAPDH; assay type: functional; conditions: route intraperitoneal

SMILES	Activity [%]
CCCCCCCC/C=C/CCCCCCCC(=O)N[C@@H](CO)C(C)C	-46
CCCCCCCCCCCCCCCCCC(=O)N[C@H](CO)C(C)C	-26

tested on: Mus musculus; experiment: Antiobesity activity in Sabra mouse assessed as change in food consumption at 1 mg/kg, ip administered on day 8, 9, 10, 11, 14, 18, 24 and 32 measured after 6 weeks relative to control; assay type: functional; conditions: route intraperitoneal

SMILES	Activity [%]
CCCCCCCC/C=C/CCCCCCCC(=O)N[C@@H](CO)C(C)C	109.1
CCCCCCCCCCCCCCCCCC(=O)N[C@H](CO)C(C)C	82.5

tested on: Hypothalamus; experiment: Effect on 5HT1A gene expression in Sabra mouse hypothalamus assessed as change in mRNA level at 1 mg/kg, ip administered on day 8, 9, 10, 11, 14, 18, 24 and 32 by RT-PCR analysis relative to GAPDH; assay type: functional; conditions: route intraperitoneal

SMILES	Activity [%]
CCCCCCCC/C=C/CCCCCCCC(=O)N[C@@H](CO)C(C)C	-18
CCCCCCCCCCCCCCCCCC(=O)N[C@H](CO)C(C)C	-16

tested on: Mus musculus; experiment: Antiobesity activity in Sabra mouse assessed as change in body weight at 1 mg/kg, ip administered on day 8, 9, 10, 11, 14, 18, 24 and 32 measured on day 9 relative to control; assay type: functional; conditions: route intraperitoneal

SMILES	Activity [%]
CCCCCCCC/C=C/CCCCCCCC(=O)N[C@@H](CO)C(C)C	-1.7
CCCCCCCCCCCCCCCCCC(=O)N[C@H](CO)C(C)C	0.9

tested on: Hypothalamus; experiment: Effect on POMC gene expression in Sabra mouse hypothalamus assessed as change in mRNA level at 1 mg/kg, ip administered on day 8, 9, 10, 11, 14, 18, 24 and 32 by RT-PCR analysis relative to GAPDH; assay type: functional; conditions: route intraperitoneal

SMILES	Activity [%]
CCCCCCCC/C=C/CCCCCCCC(=O)N[C@@H](CO)C(C)C	5
CCCCCCCCCCCCCCCCCC(=O)N[C@H](CO)C(C)C	43

tested on: Mus musculus; experiment: Antiobesity activity in Sabra mouse assessed as change in food consumption at 1 mg/kg, ip administered on day 8, 9, 10, 11, 14, 18, 24 and 32 measured after 3 weeks relative to control; assay type: functional; conditions: route intraperitoneal

SMILES	Activity [%]
CCCCCCCC/C=C/CCCCCCCC(=O)N[C@@H](CO)C(C)C	112
CCCCCCCCCCCCCCCCCC(=O)N[C@H](CO)C(C)C	93.8

tested on: Mus musculus; experiment: Antiobesity activity in Sabra mouse assessed as change in body weight at 1 mg/kg, ip administered on day 8, 9, 10, 11, 14, 18, 24 and 32 measured on day 14 relative to control; assay type: functional; conditions: route intraperitoneal

SMILES	Activity [%]
CCCCCCCC/C=C/CCCCCCCC(=O)N[C@@H](CO)C(C)C	-0.3
CCCCCCCCCCCCCCCCCC(=O)N[C@H](CO)C(C)C	-1.4

tested on: Hypothalamus; experiment: Effect on CAMKK2 gene expression in Sabra mouse hypothalamus assessed as change in mRNA level at 1 mg/kg, ip administered on day 8, 9, 10, 11, 14, 18, 24 and 32 by RT-PCR analysis relative to GAPDH; assay type: functional; conditions: route intraperitoneal

SMILES	Activity [%]
CCCCCCCC/C=C/CCCCCCCC(=O)N[C@@H](CO)C(C)C	8
CCCCCCCCCCCCCCCCCC(=O)N[C@H](CO)C(C)C	-14

tested on: Mus musculus; experiment: Antiobesity activity in Sabra mouse assessed as change in body weight at 1 mg/kg, ip administered on day 8, 9, 10, 11, 14, 18, 24 and 32 measured on day 25 relative to control; assay type: functional; conditions: route intraperitoneal

SMILES	Activity [%]
CCCCCCCC/C=C/CCCCCCCC(=O)N[C@@H](CO)C(C)C	-1.1
CCCCCCCCCCCCCCCCCC(=O)N[C@H](CO)C(C)C	-5.3

molecular target: Transient receptor potential cation channel subfamily V member 1 (Rattus norvegicus) (UniProt O35433); experiment: Displacement of [3H]resiniferatoxin from TRPV1 receptor in Wistar rat spinal cord at 10 uM relative to control; conditions: not given
Sequence (O35433 whole entry): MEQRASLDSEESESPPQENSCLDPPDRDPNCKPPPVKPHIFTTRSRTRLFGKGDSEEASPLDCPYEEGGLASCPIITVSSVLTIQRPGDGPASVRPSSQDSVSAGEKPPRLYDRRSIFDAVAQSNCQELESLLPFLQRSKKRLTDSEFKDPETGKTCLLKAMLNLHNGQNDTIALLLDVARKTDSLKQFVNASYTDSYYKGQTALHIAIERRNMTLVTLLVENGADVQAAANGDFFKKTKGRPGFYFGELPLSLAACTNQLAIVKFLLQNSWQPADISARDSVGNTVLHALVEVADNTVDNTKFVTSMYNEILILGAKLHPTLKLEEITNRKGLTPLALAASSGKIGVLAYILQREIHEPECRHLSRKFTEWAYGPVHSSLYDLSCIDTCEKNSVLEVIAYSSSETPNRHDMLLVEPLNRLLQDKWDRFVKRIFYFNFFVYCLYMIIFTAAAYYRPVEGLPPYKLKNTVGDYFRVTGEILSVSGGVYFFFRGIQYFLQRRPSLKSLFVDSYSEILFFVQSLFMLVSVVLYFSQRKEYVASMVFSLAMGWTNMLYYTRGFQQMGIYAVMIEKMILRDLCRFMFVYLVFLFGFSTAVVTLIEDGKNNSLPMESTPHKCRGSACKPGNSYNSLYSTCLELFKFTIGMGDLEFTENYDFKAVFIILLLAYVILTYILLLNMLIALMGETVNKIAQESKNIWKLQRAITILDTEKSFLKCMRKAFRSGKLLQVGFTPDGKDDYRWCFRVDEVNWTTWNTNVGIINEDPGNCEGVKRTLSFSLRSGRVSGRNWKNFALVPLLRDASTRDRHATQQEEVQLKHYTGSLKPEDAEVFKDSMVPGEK

SMILES	inhibition [%]
CCCCCCCCCCCCCCCCCC(=O)N[C@H](CO)C(C)C	-9

tested on: Mus musculus; experiment: Antiobesity activity in Sabra mouse assessed as change in body weight at 1 mg/kg, ip administered on day 8, 9, 10, 11, 14, 18, 24 and 32 measured on day 21 relative to control; assay type: functional; conditions: route intraperitoneal

SMILES	Activity [%]
CCCCCCCC/C=C/CCCCCCCC(=O)N[C@@H](CO)C(C)C	-1
CCCCCCCCCCCCCCCCCC(=O)N[C@H](CO)C(C)C	-1.8

tested on: Hypothalamus; experiment: Effect on CART gene expression in Sabra mouse hypothalamus assessed as change in mRNA level at 1 mg/kg, ip administered on day 8, 9, 10, 11, 14, 18, 24 and 32 by RT-PCR analysis relative to GAPDH; assay type: functional; conditions: route intraperitoneal

SMILES	Activity [%]
CCCCCCCC/C=C/CCCCCCCC(=O)N[C@@H](CO)C(C)C	25
CCCCCCCCCCCCCCCCCC(=O)N[C@H](CO)C(C)C	2

tested on: Mus musculus; experiment: Antiobesity activity in Sabra mouse assessed as change in body weight at 1 mg/kg, ip administered on day 8, 9, 10, 11, 14, 18, 24 and 32 measured on day 30 relative to control; assay type: functional; conditions: route intraperitoneal

SMILES	Activity [%]
CCCCCCCC/C=C/CCCCCCCC(=O)N[C@@H](CO)C(C)C	0.2
CCCCCCCCCCCCCCCCCC(=O)N[C@H](CO)C(C)C	-5.8

tested on: Mus musculus; experiment: Antiobesity activity in Sabra mouse assessed as change in body weight at 1 mg/kg, ip administered on day 8, 9, 10, 11, 14, 18, 24 and 32 measured on day 39 relative to control; assay type: functional; conditions: route intraperitoneal

SMILES	Activity [%]
CCCCCCCC/C=C/CCCCCCCC(=O)N[C@@H](CO)C(C)C	-1
CCCCCCCCCCCCCCCCCC(=O)N[C@H](CO)C(C)C	-6

molecular target: Cannabinoid receptor 1 (Homo sapiens) (UniProt P21554); experiment: Displacement of [3H]SR141716A from human CB1 receptor expressed in rat Chem-1 cell membrane at 10 uM relative to control; assay type: cell membranes; conditions: not given
Sequence (P21554 whole entry): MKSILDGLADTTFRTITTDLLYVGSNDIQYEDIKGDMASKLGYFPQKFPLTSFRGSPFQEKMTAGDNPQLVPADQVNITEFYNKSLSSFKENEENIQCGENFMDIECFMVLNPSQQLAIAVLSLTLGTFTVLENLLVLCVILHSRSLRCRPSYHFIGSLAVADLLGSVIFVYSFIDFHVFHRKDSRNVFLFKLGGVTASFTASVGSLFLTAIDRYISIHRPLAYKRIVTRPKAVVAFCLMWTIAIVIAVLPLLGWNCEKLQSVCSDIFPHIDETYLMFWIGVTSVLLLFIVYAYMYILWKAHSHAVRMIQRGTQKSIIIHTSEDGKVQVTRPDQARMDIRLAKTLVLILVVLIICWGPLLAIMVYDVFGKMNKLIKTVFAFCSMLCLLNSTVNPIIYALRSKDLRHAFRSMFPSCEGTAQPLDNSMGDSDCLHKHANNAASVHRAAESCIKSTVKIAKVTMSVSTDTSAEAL

SMILES	inhibition [%]
CCCCCCCC/C=C/CCCCCCCC(=O)N[C@@H](CO)C(C)C	7
CCCCCCCCCCCCCCCCCC(=O)N[C@H](CO)C(C)C	6

molecular target: T1, Peroxisome proliferator-activated receptor alpha (Homo sapiens) (UniProt Q07869); experiment: Binding affinity to human recombinant PPARalpha expressed in Escherichia coli at 10 uM for 16 hrs by spectrofluorimetric analysis relative to control; conditions: not given
T1 sequence (whole entry): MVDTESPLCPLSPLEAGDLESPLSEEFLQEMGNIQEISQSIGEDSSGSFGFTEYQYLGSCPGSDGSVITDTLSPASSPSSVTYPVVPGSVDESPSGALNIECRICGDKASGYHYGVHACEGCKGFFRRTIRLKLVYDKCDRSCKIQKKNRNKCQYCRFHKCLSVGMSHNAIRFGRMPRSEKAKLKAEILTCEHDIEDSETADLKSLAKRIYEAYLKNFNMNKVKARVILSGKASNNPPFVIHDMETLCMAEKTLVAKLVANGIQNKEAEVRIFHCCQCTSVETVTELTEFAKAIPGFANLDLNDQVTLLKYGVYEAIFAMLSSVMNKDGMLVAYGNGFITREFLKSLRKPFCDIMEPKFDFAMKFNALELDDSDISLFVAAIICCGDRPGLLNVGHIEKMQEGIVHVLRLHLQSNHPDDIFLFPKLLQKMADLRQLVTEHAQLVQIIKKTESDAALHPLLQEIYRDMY

SMILES	Activity [%]
CCCCCCCC/C=C/CCCCCCCC(=O)N[C@@H](CO)C(C)C	0
CCCCCCCCCCCCCCCCCC(=O)N[C@H](CO)C(C)C	0

tested on: Mus musculus; experiment: Antiobesity activity in Sabra mouse assessed as change in body weight at 1 mg/kg, ip administered on day 8, 9, 10, 11, 14, 18, 24 and 32 measured on day 4 relative to control; assay type: functional; conditions: route intraperitoneal

SMILES	Activity [%]
CCCCCCCC/C=C/CCCCCCCC(=O)N[C@@H](CO)C(C)C	-2.3
CCCCCCCCCCCCCCCCCC(=O)N[C@H](CO)C(C)C	2.1

molecular target: Cannabinoid receptor 2 (Homo sapiens) (UniProt P34972); experiment: Displacement of [3H]WIN-55,212-2 from human recombinant CB2 receptor expressed in CHO-K1 cells at 10 uM relative to control; assay type: cell-based; conditions: not given
Sequence (P34972 whole entry): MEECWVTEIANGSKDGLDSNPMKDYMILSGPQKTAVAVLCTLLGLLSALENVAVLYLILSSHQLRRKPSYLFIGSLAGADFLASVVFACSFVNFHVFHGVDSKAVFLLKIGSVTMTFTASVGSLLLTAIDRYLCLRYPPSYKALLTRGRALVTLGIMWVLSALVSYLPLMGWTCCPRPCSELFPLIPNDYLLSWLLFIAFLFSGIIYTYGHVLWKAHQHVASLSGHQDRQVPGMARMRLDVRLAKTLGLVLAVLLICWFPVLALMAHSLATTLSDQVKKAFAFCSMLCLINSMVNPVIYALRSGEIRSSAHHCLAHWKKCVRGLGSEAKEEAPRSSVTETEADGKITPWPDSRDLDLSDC

SMILES	inhibition [%]
CCCCCCCC/C=C/CCCCCCCC(=O)N[C@@H](CO)C(C)C	0
CCCCCCCCCCCCCCCCCC(=O)N[C@H](CO)C(C)C	6

tested on: Mus musculus; experiment: Antiobesity activity in Sabra mouse assessed as change in food consumption at 1 mg/kg, ip administered on day 8, 9, 10, 11, 14, 18, 24 and 32 measured after 2 weeks relative to control; assay type: functional; conditions: route intraperitoneal

SMILES	Activity [%]
CCCCCCCC/C=C/CCCCCCCC(=O)N[C@@H](CO)C(C)C	102.9
CCCCCCCCCCCCCCCCCC(=O)N[C@H](CO)C(C)C	96

tested on: Hypothalamus; experiment: Effect on NPY gene expression in Sabra mouse hypothalamus assessed as change in mRNA level at 1 mg/kg, ip administered on day 8, 9, 10, 11, 14, 18, 24 and 32 by RT-PCR analysis relative to GAPDH; assay type: functional; conditions: route intraperitoneal

SMILES	Activity [%]
CCCCCCCC/C=C/CCCCCCCC(=O)N[C@@H](CO)C(C)C	-9
CCCCCCCCCCCCCCCCCC(=O)N[C@H](CO)C(C)C	-39

tested on: Mus musculus; experiment: Increase in motor activity Sabra mouse at 1 mg/kg, ip administered on day 8, 9, 10, 11, 14, 18, 24 and 32 measured on day 14 by open field test; assay type: functional, organism-based; set-up: dose 1 mg/kg; conditions: not given

SMILES	Activity
CCCCCCCC/C=C/CCCCCCCC(=O)N[C@@H](CO)C(C)C	inactive
CCCCCCCCCCCCCCCCCC(=O)N[C@H](CO)C(C)C	inactive

tested on: Mus musculus; experiment: Antiobesity activity in Sabra mouse assessed as change in food consumption at 1 mg/kg, ip administered on day 8, 9, 10, 11, 14, 18, 24 and 32 measured after 4 weeks relative to control; assay type: functional; conditions: route intraperitoneal

SMILES	Activity [%]
CCCCCCCC/C=C/CCCCCCCC(=O)N[C@@H](CO)C(C)C	108
CCCCCCCCCCCCCCCCCC(=O)N[C@H](CO)C(C)C	85.7

tested on: Mus musculus; experiment: Antiobesity activity in Sabra mouse assessed as change in body weight at 1 mg/kg, ip administered on day 8, 9, 10, 11, 14, 18, 24 and 32 measured on day 35 relative to control; assay type: functional; conditions: route intraperitoneal

SMILES	Activity [%]
CCCCCCCC/C=C/CCCCCCCC(=O)N[C@@H](CO)C(C)C	1.4
CCCCCCCCCCCCCCCCCC(=O)N[C@H](CO)C(C)C	-7.8

molecular target: T2, Fatty-acid amide hydrolase 1 (Rattus norvegicus) (UniProt P97612); experiment: Inhibition of rat brain FAAH using [3H]anandamide as substrate at 10 uM preincubated for 15 mins before substrate addition relative to control; conditions: not given
T2 sequence (whole entry): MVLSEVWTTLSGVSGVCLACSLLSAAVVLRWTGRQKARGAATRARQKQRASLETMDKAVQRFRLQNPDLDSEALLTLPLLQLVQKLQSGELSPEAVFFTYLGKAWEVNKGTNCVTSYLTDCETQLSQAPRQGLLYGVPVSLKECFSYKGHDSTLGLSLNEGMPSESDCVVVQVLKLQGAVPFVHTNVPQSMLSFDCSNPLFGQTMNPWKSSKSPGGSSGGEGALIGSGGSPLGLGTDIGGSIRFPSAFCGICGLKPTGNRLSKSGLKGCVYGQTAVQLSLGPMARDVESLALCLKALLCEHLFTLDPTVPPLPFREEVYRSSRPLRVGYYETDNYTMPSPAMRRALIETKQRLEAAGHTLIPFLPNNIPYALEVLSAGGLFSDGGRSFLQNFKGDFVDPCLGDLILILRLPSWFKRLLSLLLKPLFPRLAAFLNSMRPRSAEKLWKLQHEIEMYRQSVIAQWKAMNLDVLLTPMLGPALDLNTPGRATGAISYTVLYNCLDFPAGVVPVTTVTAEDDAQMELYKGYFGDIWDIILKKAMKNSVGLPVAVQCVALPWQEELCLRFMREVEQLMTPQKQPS

SMILES	inhibition [%]
CCCCCCCC/C=C/CCCCCCCC(=O)N[C@@H](CO)C(C)C	13
CCCCCCCCCCCCCCCCCC(=O)N[C@H](CO)C(C)C	0

tested on: Mus musculus; experiment: Antiobesity activity in Sabra mouse assessed as change in food consumption at 1 mg/kg, ip administered on day 8, 9, 10, 11, 14, 18, 24 and 32 measured after 5 weeks relative to control; assay type: functional; conditions: route intraperitoneal

SMILES	Activity [%]
CCCCCCCC/C=C/CCCCCCCC(=O)N[C@@H](CO)C(C)C	111.4
CCCCCCCCCCCCCCCCCC(=O)N[C@H](CO)C(C)C	100.5

Source: ChEMBL document CHEMBL2321853, “Novel acylethanolamide derivatives that modulate body weight through enhancement of hypothalamic pro-opiomelanocortin (POMC) and/or decreased neuropeptide Y (NPY)” (J Med Chem, 2013)
